From patent US12673936B2, “Isoindolinone compounds, and uses thereof” (HANGZHOU GLUBIO PHARMACEUTICAL CO., LTD., priority 2021, dated 2026) come the findings set out here.

Read-outs that look alike come from different tables or passages of the source.

In one series the target is HiBiT tagged CK1α (Homo sapiens, UniProt P48729+Q96SW2). In words: CK1α degradation assay (HiBiT assay). The settings on record: 20 hours; for Dmax: HT-1080, HT-1080 cells; for DC50: concentration at 50% CK1α degradation. Type of series: cell-based. The essentials: (§1)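 HT-1080 cells stably expressing wild-type CRBN, GSPT1A(1-138)/G575N and HiBiT-tagged CK1α or GSPT1, ~10,000/well, treated with compound from 3.162×10^-4 μM to 10 μM (3.16-fold steps). HiBiT luminescence normalized to DMSO as percent of control.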
In general terms: HiBiT is a short tag that completes a luciferase, so light tracks the accessible tagged protein.

Another series addresses HiBiT tagged GSPT1 (Homo sapiens, UniProt P15170+Q96SW2). Nature of the series: GSPT1 degradation assay (HiBiT assay). The settings on record: 20 hours, maximum GSPT1 degradation; for Dmax: HT-1080, HT-1080 cells. Type of series: cell-based. In outline:
as §1

For a further series, the system named is MV4-11 cells. Nature of the series: MV4-11 cell proliferation assay (CTG cell viability). Type of series: cell-based. As to conditions: 120 hours, read-out: CTG cell viability assay_MV4-11: IC50. The method, then: MV4-11 Cell Proliferation Assay
The following is an example of an assay that can be used to determine the dose-dependent, anti-proliferative activity of CK1α degradating compounds in an AML cell line such as MV4-11 (ATCC Cat #CRL-9591).
(§2) MV4-11 cells were seeded into a 384-well plate (Cat #3764, Corning) pre-spotted with DMSO or test compounds. Increasing concentrations of test compounds (ranging from 1×10^−3 μM to 10 μM at a 3.162-fold increment in a 10-point dose response assay; ranging from 3.162×10^−4 μM to 10 μM at a 3.162-fold increment in a 11-point dose response assay) or DMSO were dispensed into an empty 384-well plate using an a D300e digital dispenser (Tecan) or an Echo Acoustic Liquid Handler (Beckman Coulter). About 2,000 cells in 50 μL of culture media (IMDM plus 10% heat-inactivated FBS) were seeded per well. Assay plates were incubated at 37° C. with 5% CO2 for 120 hours. After that, 20 μL of the CellTiter-Glo Luminescent Cell Viability Assay Reagent (Cat #G7573, Promega) was added to each well and incubated at room temperature for 30 minutes. Luminescence was then measured with an EnVision plate reader (PerkinElmer) or a PHERAstar plate reader (BMG LABTECH). All cell growth inhibition curves were processed using Collaborative Drug Discovery Vault softwares (Burlingame, CA, www.collaborativedrug.com).
Cell viability reads in compound-treated wells were normalized to that of DMSO control and expressed as Percent of Control (PoC, y). A four Parameter Logistic Model was used to determine the compound's EC50 and DC50, using the following equation:
[formula] • A==lowest cell viability read normalized to DMSO control in response to compound treatment, as determined by curve fit • B=cell viability read in DMSO control • C=EC50 • D=Hill Slope • x=compound concentration • EC50=the concentration of compound when y=(B−A)/2 • IC50=the concentration of the compound when y=50% of DMSO control • y=cell viability read normalized to DMSO control Ymin=(A/B)*100% • Ymin represents the lowest cell viability % that can be achieved by the compound treatment in the assay.

Series [1] is described as follows: KG-1a cell proliferation assay (CTG cell viability, counter screen for GSPT1-mediated cytotoxicity). The class given is cell-based. As to conditions: human, KG-1a cells (AML cell line harboring p53 mutation), lowest cell viability, highest concentration 10 μM, read-out: CTG cell viability assay KG1a: Ymin.
Excerpt: (§3) KG-1a Cell Proliferation Assay
(§4) On the other hand, most AML cell lines were reported to be sensitive to GSPT1 degradation induced by CC-885 or CC-90009 regardless of their p53 mutational status (Matyskiela et al., Nature (2016) 535:252-257; Surka et al., Blood (2021) 137 (5): 661-677). Because the subtle to moderate degradation of GSPT1 induced by CK1α degraders with mild activity towards GSPT1 might still result in toxicity in human, a counter screen using an AML cell line harboring p53 mutation such as KG-1a (ATCC Cat #CCL-246.1), was performed to determine the GSPT1-mediated cytotoxicity in vitro.
as §2, with “The following is an example of an assay that can be used to determine the potential GSPT1-dependent cytotoxcity of test compounds that degrade GSPT1. KG-1a cells” for “MV4-11 cells”, “[…]” for “1×10^−3 μM”, “[…]” for “3.162×10^−4 μM”, “with” for “with an”, “EnVision Multimode Plate Reader” for “EnVision plate reader”, “www.collaborativedrug.com). Cell viability reads in compound-treated wells were normalized to that of DMSO control and expressed as Percent of Control (PoC, y). A four Parameter Logistic Model was used to determine the compound's EC50 and DC50, using the following equation: […]” for “www.collaborativedrug.com).”

The next series has as its system KG-1a cells. The series is described as above. Type of series: cell-based. As to conditions: 120 hours, lowest cell viability, highest concentration 10 μM.
Excerpt: as §3, §4
as §2, with “The following is an example of an assay that can be used to determine the potential GSPT1-dependent cytotoxcity of test compounds that degrade GSPT1. KG-1a cells” for “MV4-11 cells”, “[…]” for “1×10^−3 μM”, “[…]” for “3.162×10^−4 μM”, “with” for “with an”, “EnVision Multimode Plate Reader” for “EnVision plate reader”, “www.collaborativedrug.com). Cell viability reads in compound-treated wells were normalized to that of DMSO control and expressed as Percent of Control (PoC, y). A four Parameter Logistic Model was used to determine the compound's EC50 and DC50, using the following equation: […]” for “www.collaborativedrug.com).”

Series [2] can be described thus: Pharmacokinetic study of single intravenous and oral administration in mouse. The class given is in vivo. On the procedure: The pharmacokinetic study of single intravenous and oral administration in mouse Sample collection and preparation: After intravenous injection or oral administration of test compounds, blood samples were collected and the blood collection time was recorded. After the blood sample was collected, it was immediately transferred into a labeled centrifuge tube containing K2-EDTA, followed by centrifugation and plasma collection. The plasma was then transferred into a pre-cooled centrifuge tube, quickly frozen on dry ice, and stored in an ultra-low temperature refrigerator at −70±10° C. until the LC-MS/MS analysis was performed.
Pharmacokinetic data analysis: The pharmacokinetic software was used to process the plasma drug concentration data of the compound in a non-compartmental model. The peak concentration (Cmax), peak time (Tmax) and quantifiable end time can be directly obtained from the plasma concentration-time diagram. The log-linear trapezoidal method was used to calculate the following pharmacokinetic parameters: half-life (T1/2), apparent volume of distribution (Vdss) and clearance (Cl), and the area under the time-plasma concentration curve (AUC0-inf) from the 0 point to the end point.

Sequence of HiBiT tagged GSPT1 (P15170 whole entry): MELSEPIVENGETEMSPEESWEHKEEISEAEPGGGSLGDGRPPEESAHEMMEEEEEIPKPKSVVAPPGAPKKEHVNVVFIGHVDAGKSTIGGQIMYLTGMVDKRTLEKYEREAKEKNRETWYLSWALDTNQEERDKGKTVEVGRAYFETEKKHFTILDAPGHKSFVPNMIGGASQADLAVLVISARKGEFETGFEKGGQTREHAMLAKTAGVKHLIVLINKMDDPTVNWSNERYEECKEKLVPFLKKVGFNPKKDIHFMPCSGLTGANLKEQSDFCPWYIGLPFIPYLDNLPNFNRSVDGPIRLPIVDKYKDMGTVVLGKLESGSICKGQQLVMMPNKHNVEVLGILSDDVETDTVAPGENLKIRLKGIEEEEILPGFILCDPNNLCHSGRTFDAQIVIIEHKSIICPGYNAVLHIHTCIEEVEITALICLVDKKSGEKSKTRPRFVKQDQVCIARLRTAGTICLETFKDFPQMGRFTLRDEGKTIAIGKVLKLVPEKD
Sequence of HiBiT tagged GSPT1 (Q96SW2 whole entry): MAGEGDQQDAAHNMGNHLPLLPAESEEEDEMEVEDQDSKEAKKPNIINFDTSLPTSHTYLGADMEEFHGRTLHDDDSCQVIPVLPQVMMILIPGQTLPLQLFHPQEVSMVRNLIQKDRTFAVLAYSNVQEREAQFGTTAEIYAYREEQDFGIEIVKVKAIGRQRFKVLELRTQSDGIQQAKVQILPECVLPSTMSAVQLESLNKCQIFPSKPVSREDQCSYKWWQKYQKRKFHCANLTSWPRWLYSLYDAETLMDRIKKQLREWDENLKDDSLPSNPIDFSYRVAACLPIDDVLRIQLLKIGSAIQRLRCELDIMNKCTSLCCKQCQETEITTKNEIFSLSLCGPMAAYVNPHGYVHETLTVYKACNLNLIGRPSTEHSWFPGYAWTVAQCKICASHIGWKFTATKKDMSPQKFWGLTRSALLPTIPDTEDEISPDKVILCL
Sequence of HiBiT tagged GSPT1 (Q16531 whole entry partner): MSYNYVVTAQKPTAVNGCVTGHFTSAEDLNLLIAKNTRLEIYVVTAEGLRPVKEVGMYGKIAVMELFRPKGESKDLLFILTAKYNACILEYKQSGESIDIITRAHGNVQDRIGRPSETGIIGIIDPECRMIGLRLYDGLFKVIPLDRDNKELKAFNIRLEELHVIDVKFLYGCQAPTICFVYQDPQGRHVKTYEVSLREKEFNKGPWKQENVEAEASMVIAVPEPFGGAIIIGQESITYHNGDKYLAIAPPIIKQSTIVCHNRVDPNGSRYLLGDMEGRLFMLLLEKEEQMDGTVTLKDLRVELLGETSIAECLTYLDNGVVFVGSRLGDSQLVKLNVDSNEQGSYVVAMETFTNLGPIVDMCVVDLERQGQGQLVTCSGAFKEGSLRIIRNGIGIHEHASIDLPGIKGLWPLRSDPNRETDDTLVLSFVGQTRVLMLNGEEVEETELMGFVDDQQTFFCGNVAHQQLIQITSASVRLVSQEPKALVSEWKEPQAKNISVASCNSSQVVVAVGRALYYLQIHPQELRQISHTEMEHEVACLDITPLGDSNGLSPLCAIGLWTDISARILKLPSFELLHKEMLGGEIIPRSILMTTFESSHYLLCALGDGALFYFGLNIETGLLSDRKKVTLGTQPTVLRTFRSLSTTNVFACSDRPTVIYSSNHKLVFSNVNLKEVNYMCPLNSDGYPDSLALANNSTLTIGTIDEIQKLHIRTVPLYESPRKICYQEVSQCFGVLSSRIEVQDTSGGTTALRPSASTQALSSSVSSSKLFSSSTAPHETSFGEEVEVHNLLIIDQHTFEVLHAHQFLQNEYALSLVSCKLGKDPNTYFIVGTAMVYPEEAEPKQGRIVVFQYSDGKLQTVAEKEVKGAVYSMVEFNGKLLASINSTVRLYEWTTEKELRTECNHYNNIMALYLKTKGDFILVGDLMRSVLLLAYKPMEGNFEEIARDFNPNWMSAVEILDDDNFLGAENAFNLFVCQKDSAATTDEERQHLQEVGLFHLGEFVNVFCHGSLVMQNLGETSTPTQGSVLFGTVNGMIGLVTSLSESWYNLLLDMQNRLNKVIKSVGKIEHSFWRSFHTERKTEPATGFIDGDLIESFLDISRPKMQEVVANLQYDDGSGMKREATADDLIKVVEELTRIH
Sequence of HiBiT tagged CK1α (P48729 whole entry): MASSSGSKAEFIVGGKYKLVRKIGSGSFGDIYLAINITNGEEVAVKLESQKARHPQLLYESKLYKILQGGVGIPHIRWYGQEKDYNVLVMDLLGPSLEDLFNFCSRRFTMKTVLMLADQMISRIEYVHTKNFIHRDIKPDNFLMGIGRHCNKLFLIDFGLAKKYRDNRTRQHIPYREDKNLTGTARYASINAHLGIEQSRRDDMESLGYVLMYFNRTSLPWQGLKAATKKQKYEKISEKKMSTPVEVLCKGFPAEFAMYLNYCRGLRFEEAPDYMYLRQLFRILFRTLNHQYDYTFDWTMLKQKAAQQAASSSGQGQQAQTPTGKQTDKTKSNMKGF
Sequence of HiBiT tagged CK1α (Q96SW2 whole entry): as the sequence (Q96SW2 whole entry) above
Sequence of HiBiT tagged CK1α (Q16531 whole entry partner): as the sequence (Q16531 whole entry partner) above

A word on the Dmax: it is the largest share of the target that was removed. Low readings indicate a partial loss of target, high ones a fuller loss of target. What is called DC50 is the concentration giving 50% degradation. As a reminder, the IC50 is the concentration that gives 50% inhibition. What is called viability is a per cent measure of how many cells are alive, often set against a control. As to `O=C1CCC(N2Cc3cc(C(=O)NC(c4ccc(F)cc4)C4CC(F)(F)C4)ccc3C2=O)C(=O)N1` (stereo not shown) [Compound 4, N-((3,3-difluorocyclobutyl)(4-fluorophenyl)methyl)-2-(2,6-dioxopiperidin-3-yl)-1-oxoisoindoline-5-carboxamide], the Dmax on HiBiT tagged CK1α (maximum CK1α degradation) amounted to 63.4%; at HiBiT tagged GSPT1 it was 31.1%. On HiBiT tagged CK1α (HT-1080 cells), this molecule registered a DC50 of 183 nM. Also, in the series with MV4-11 cells (Homo sapiens), the half-maximal inhibitory concentration (IC50) was determined as 262 nM. In addition, the viability at 120 h, 10 µM in series [1] was found to be 90.9%.
As for `O=C1CCC(N2Cc3cc(C(=O)N[C@H](c4ccc(F)cc4)C4CCC4)ccc3C2=O)C(=O)N1` (stereo in doubt) [Compound 7, N—((*S)-cyclobutyl(4-fluorophenyl)methyl)-2-(2,6-dioxopiperidin-3-yl)-1-oxoisoindoline-5-carboxamide], the DC50 at HiBiT tagged CK1α (HT-1080 cells) stood at 81.7 nM. Besides, the “HiBiT CK1α: Dmax” value at HiBiT tagged CK1α (HT-1080 cells, maximum CK1α degradation) is recorded as 71.8%. The “HiBiT GSPT1: Dmax” value at HiBiT tagged GSPT1 (HT-1080 cells) is 28.6%. For the same molecule, in the series with MV4-11 cells, the half-maximal inhibitory concentration (IC50) came to 112 nM. Also, the “CTG cell viability assay KG1a: Ymin” value with KG-1a cells is 91.7%.
As a reminder, the half-life is the time in which the quantity being followed falls by half. Read a low half-life as rapid decline. One may read the AUC(0-inf) as total exposure, with the tail of the curve extrapolated. A higher AUC(0-inf) goes with more exposure. By Cmax is commonly meant the peak of the concentration-time curve. The term Tmax denotes the time at which the peak concentration occurs. The molecule `O=C1CCC(N2Cc3cc(C(=O)N[C@H](c4ccc(F)cc4F)C4CCC4)ccc3C2=O)C(=O)N1` (stereo in doubt) [Compound 41, N-((*S)-cyclobutyl(2,4-difluorophenyl)methyl)-2-(2,6-dioxopiperidin-3-yl)-1-oxoisoindoline-5-carboxamide] displayed a maximal degradation (Dmax) at HiBiT tagged CK1α (maximum CK1α degradation) of 70.5%. The molecule further yielded a 50% degradation concentration (DC50) at HiBiT tagged CK1α (HT-1080 cells) of 82.4 nM. This molecule also returned a maximal degradation (Dmax) on HiBiT tagged GSPT1 of 24.9%. Also, the 50% inhibitory concentration (IC50) with MV4-11 cells (Homo sapiens) stood at 115 nM. For the same molecule, the F in series [2] (10 mg/kg, PO) is on record as 76.8%. For the same molecule, in series [2] (plasma, 2 mg/kg, IV), the C0 was determined as 1860 ng/mL, the clearance was 23 mL/min/kg and the half-life was 2.84 h. Besides, the Vd in series [2] (plasma, 2 mg/kg, IV, read-out: Vss) turned out to be 3.2 L/kg. Besides, in series [2] (plasma, 10 mg/kg, PO), the area under the curve AUC(0-inf) worked out at 5870 ng·h/mL, the highest concentration (Cmax) stood at 1570 ng/mL, the time of peak concentration (Tmax) is 0.83 h and the half-life is 2.72 h.
For `O=C1CCC(N2Cc3cc(C(=O)N[C@H](c4ccc(Cl)cc4)C4CC(F)(F)C4)ccc3C2=O)C(=O)N1` (stereo in doubt) [Compound 35, N-((*S)-(4-chlorophenyl)(3,3-difluorocyclobutyl)methyl)-2-(2,6-dioxopiperidin-3-yl)-1-oxoisoindoline-5-carboxamide], the values for the maximal degradation (Dmax) on HiBiT tagged CK1α (maximum CK1α degradation) and on HiBiT tagged GSPT1 were 67% and 14.8%, respectively. Further, the DC50 on HiBiT tagged CK1α (HT-1080 cells) came to 94.7 nM. Moreover, in the series with MV4-11 cells (Homo sapiens), the half-inhibitory concentration (IC50) stood at 198 nM. Further, in series [1], the viability at 120 h, 10 µM turned out to be 92.1%.
